Test results taken from publication PMC6770006, “Novel Heat Shock Protein 90 Inhibitors Suppress P-Glycoprotein Activity and Overcome Multidrug Resistance in Cancer Cells” (International Journal of Molecular Sciences, 2019).

Experiments:
NCI-H460 cells = assay: MTT assay, cell growth inhibition, NCI-H460; assay type: cell-based; details: Homo sapiens, 72 h, three independent experiments
Method: (§1) A series of 3-aryl-naphtho[2,3-d]isoxazole-4,9-diones were synthesized (Scheme 1, Figure 1) and their growth inhibition activity was tested in vitro on human non-small cell lung carcinoma NCI-H460, colorectal carcinoma DLD1 and their corresponding MDR cells (NCI-H460/R and DLD1-TxR, respectively), as well as normal embryonic lung fibroblasts MRC-5. The differences in cell growth inhibition between cancer and normal cells obtained by the MTT assay after 72 h treatment are presented in Table 1. The effect of compounds is presented as IC50 values that correspond to the 50% of cell growth inhibition.
(§2) Cell viability was assessed by the MTT assay (AppliChem GmbH, Darmstadt, Germany). Cells grown in 25 cm^2 tissue flasks were trypsinized and 1000 cells/well were seeded into flat-bottomed 96-well tissue culture plates and incubated overnight. Subsequently, the cells were treated with increasing concentrations of Hsp90 inhibitors for 72 h: compound 3 (0.1–2.5 µM), compound 4 (0.25–5 µM), compound 5 (0.5–25 µM), compound 6 (50–1000 nM), compound 7 (10–250 nM), compound 8 (0.25–5 µM), compound 9 (10–250 nM), compound 10 (0.5–25 µM), compound 13 (0.5–10 µM), compound 14 (1–25 µM), and compound 15 (10–250 nM). […] After treatment, MTT was added to each well in a final concentration of 0.2 mg/mL for 4 h. Formazan product was dissolved in 200 µl of DMSO, and the absorbance was measured at 540 nm using an automatic LKB 5060-006 Micro Plate Reader (Vienna, Austria). IC50 value was defined as a concentration of the drug that inhibited cell growth by 50% and was calculated by nonlinear regression analysis using GraphPad Prism 6.0 for Windows (La Jolla, CA, USA). Relative selectivity towards cancer cells was calculated as a relation between IC50 value obtained in MRC-5 cells and an average IC50 value from four tested cancer cell lines.

NCI-H460/R cells [1] = assay: MTT assay, cell growth inhibition, NCI-H460/R (MDR); assay type: cell-based, human
Method: as §1
(§3) Human colorectal carcinoma (DLD1), non-small cell lung carcinoma (NCI-H460), and normal embryonic lung fibroblast (MRC-5) cell lines were purchased from the American Type Culture Collection, Rockville, MD. P-gp overexpressing multidrug resistant DLD1-TxR cells were selected by continuous exposure to stepwise increasing concentrations of paclitaxel from DLD1 cells, while NCI-H460/R cells were selected from NCI-H460 cells after DOX selective pressure. MDR cancer cell lines, DLD1-TxR and NCI-H460/R, and their sensitive counterparts were maintained in RPMI 1640 medium supplemented with 10% FBS, 2 mM L-glutamine, and 10,000 U/mL penicillin, 10 mg/mL streptomycin, 25 mg/mL amphotericin B solutions. MRC-5 cells were cultured in DMEM supplemented with 10% FBS, 4 g/L glucose, 2 mM L-glutamine and 5000 U/mL penicillin, 5 mg/mL streptomycin solution. All cell lines were sub-cultured at 72 h intervals using 0.25% trypsin/EDTA and seeded into a fresh medium at 8000 cells/cm^2. All cell lines were maintained at 37 °C in a humidified 5% CO2 atmosphere.
as §2

DLD1 cells = assay: MTT assay, cell growth inhibition, DLD1; assay type: cell-based; details: Homo sapiens, DLD-1, 72 h
Method: as §1, §2

DLD1-TxR cells = assay: MTT assay, cell growth inhibition, DLD1-TxR (MDR); assay type: cell-based, human; details: 72 h
Method: as §1, §3, §2

MRC-5 cells = assay: MTT assay, normal embryonic lung fibroblasts MRC-5; assay type: cell-based, human
Method: as §1, §2

[2] = test system: NCI-H460, NCI-H460/R, DLD1, DLD1-TxR cells; assay: MTT assay, grouping of inhibitors by IC50 over the cancer cell lines; assay type: cell-based; details: Homo sapiens, Figure 2b, read-out: IC50 values (grouping for Pearson correlation)
Method: When the IC50 values obtained by the MTT assay were compared to Hsp90 affinity binding IC50 values (Table 1), a positive Pearson correlation (r > 0.5) was found for all cancer cell lines (Figure 2b).
as §2

Hsp90 = test system: Hsp90; design: method as in PMID 22538015; details: read-out: Hsp90 Affinity binding; cited from earlier work
P-gp = P-gp (Homo sapiens, UniProt P08183); assay: Rhodamine 123 accumulation assay (P-gp activity, flow cytometry); assay type: cell-based; design: P-gp overexpressing multidrug resistant DLD1-TxR cells were selected by continuous exposure to stepwise increasing concentrations of paclitaxel from DLD1 cells; endogenous in cells; host or cells: NCI-H460/R and DLD1-TxR (drug-selected MDR human cancer cells); details: DLD1-TxR cells, 30 min, Figure 3a
Sequence of P-gp (P08183 whole entry): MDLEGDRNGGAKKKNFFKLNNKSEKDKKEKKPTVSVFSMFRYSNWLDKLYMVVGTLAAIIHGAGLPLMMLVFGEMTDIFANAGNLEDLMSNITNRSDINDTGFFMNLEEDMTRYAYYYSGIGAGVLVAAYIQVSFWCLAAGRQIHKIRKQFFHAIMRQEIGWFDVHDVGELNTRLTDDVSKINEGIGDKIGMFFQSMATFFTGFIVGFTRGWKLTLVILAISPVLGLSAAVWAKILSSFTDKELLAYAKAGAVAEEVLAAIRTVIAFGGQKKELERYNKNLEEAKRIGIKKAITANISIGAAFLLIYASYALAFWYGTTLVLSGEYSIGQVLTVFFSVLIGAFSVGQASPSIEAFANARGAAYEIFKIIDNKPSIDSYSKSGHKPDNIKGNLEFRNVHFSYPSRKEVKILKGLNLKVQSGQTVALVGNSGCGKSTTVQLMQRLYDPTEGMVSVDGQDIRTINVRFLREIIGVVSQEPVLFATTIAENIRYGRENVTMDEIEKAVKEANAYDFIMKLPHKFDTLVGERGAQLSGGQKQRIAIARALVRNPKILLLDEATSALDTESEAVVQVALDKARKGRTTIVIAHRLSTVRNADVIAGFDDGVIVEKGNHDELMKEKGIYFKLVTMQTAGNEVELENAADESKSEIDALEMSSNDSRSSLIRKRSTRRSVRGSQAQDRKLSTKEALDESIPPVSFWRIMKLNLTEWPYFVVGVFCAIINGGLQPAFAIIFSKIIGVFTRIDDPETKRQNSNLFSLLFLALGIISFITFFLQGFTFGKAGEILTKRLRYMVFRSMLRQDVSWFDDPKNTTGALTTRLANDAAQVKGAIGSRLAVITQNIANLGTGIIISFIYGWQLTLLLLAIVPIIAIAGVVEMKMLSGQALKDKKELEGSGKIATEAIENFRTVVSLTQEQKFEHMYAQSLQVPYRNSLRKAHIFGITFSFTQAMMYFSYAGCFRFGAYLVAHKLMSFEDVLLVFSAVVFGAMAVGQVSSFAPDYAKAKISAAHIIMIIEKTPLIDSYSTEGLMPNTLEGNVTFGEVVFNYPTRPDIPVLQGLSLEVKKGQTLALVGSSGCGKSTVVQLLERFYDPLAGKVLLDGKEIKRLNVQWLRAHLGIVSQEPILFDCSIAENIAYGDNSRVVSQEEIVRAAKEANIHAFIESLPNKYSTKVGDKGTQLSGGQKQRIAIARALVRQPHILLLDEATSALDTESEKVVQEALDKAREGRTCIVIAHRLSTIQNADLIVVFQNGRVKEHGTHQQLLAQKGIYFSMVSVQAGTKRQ
Method: To study the effect of Hsp90 inhibitors on P-gp activity in MDR cancer cells, intracellular accumulation of the P-gp substrate rhodamine 123 (Rho 123) was analyzed by flow cytometry after 30 min treatment (Figure 3a). A well-known inhibitor of P-gp activity, tariquidar (TQ), was included as a positive control.
The accumulation of Rho 123, a fluorescent P-gp substrate, was measured by flow cytometry. The intensity of the fluorescence is proportional to Rho 123 accumulation in the cell. All cell lines were seeded in adherent 6-well plates and grown overnight. DLD1-TxR and NCI-H460/R cells were treated for 30 min with the following concentrations of Hsp90 inhibitors: 500 nM compound 3, 1 µM compound 4, 10 µM compound 5, 500 nM compound 6, 500 nM compound 7, 1 µM compound 8, 500 nM compound 9, 1 µM compound 10, 1 µM compound 13, 10 µM compound 14, 100 nM compound 15. TQ (10 nM) was used as a positive control for Rho 123 accumulation. Rho 123 (5 μM) was simultaneously added with the investigated compounds and the cells were incubated at 37 °C in 5% CO2 for 30 min. The cells were then trypsinized, pelleted by centrifugation, washed with PBS and placed in ice-cold PBS. The samples were kept on ice in the dark until the analysis on CyFlow Space Partec flow cytometer (Sysmex Partec GmbH, Görlitz, Germany). The fluorescence of Rho 123 was detected on fluorescence channel 1 (FL1-H) at 530 nm. A minimum of 10,000 events were collected for each sample and the obtained results were analyzed using Summit software.

P-gp expression = assay: Flow cytometric analysis of P-gp expression; assay type: cell-based, human; details: 72 h; 5 µM 5, 200 nM 7, 100 nM 9, 10 nM TQ, 50 nM DOX, 50 nM PTX
Method: P-glycoprotein expression level in NCI-H460, NCI-H460/R, DLD1, and DLD1-TxR and cells was measured by flow cytometry. All cell lines were seeded in adherent 6-well plates and treated with Hsp90 inhibitors for 72 h at the following concentrations: 5 µM compound 5, 200 nM compound 7, 100 nM compound 9 (NCI-H460 and DLD1), and 10 µM compound 5, 500 nM compound 7, 500 nM compound 9 (NCI-H460/R and DLD1-TxR). Cells were also treated with 10 nM TQ, a non-competitive P-gp inhibitor, which served as a positive control. In addition, sensitive cells (NCI-H460 and DLD1) were treated with 50 nM DOX and 50 nM PTX that served as positive controls for the induction of P-gp expression. Then, cells were collected by trypsinization, washed with PBS, and directly immunostained by FITC-conjugated anti-P-gp antibody according to the manufacturer’s protocol. The samples were kept in the dark until the analysis on CyFlow Space Partec flow cytometer (Sysmex Partec GmbH, Görlitz, Germany). The fluorescence of FITC-conjugated anti-P-gp was detected on fluorescence channel 1 (FL1-H) at 530 nm. A minimum of 10,000 events were collected for each sample (the gate excluded cell debris and dead cells) and the obtained results were analyzed with Summit software v4.3 (Dako Colorado Inc., Fort Collins, CO, USA).

NCI-H460/R cells [3] = assay: Combined treatment of compound 5 with DOX, MTT, median effect analysis; assay type: cell-based, human; details: Homo sapiens, NCI-H460, 72 h, DOX alone, 72 h
Method: The combined effects of compound 5 with DOX as well as with PTX were studied in NCI-H460/R and DLD1-TxR cells, respectively, by MTT assay. In simultaneous treatments that lasted 72 h in NCI-H460/R cells, three concentrations of compound 5 (2.5, 5, and 10 µM) were combined with increasing concentrations of DOX (250, 500 and 1000 nM), while in DLD1-TxR cells different concentrations of compound 5 (1, 2.5, and 5 µM) were combined with increasing concentrations of PTX (100, 250 and 500 nM). The nature of the interaction between Hsp90 inhibitors and DOX/PTX was analyzed with CalcuSyn software v1.1 (Biosoft, Cambridge, UK) that uses the Combination Index method based on the multiple drug effect equation [54]. Three data points were used for each single drug in each experiment. The non-constant ratio combination was chosen to assess the effect of both drugs in combination. The results are presented in a fraction-affected CI graph. Values of CI < 1 point to a pronounced additive effect or synergism (the smaller value, the greater the degree of synergy). A value of CI = 1 indicates an additive effect, while values of CI > 1 point to an antagonistic effect.

IC50 (NCI-H460 cells) | IC50 (NCI-H460/R cells [1]; Homo sapiens, NCI-H460, 72 h, MDR cells) | IC50 (DLD1 cells) | IC50 (DLD1-TxR cells; Homo sapiens, MDR cells) | IC50 [2] | P-gp activity / Rho 123 accumulation in DLD1-TxR (P-gp) | IC50 (NCI-H460/R cells [3]) | SMILES | Efficacy in MDR NCI-H460/R cells compared with sensitive NCI-H460 (NCI-H460/R cells [1]; 72 h) | Efficacy in MDR DLD1-TxR cells compared with sensitive DLD1 (DLD1-TxR cells) | IC50 (MRC-5 cells; Homo sapiens, MRC5, MTT, 72 h, normal fibroblasts, read-out: Cell growth inhibition IC50, MRC-5) | Relative Selectivity (MRC-5 cells; IC50 in MRC-5 cells / average IC50 of four cancer cell lines) | IC50 (Hsp90) | Change in P-gp expression, DLD1 (P-gp expression) | Change in P-gp expression, NCI-H460 (P-gp expression)
52 ± 2 nM | 39 ± 1 nM | 44 ± 1 nM | 193 ± 7 nM | < 1000 nM | maintained a certain activity | – | CC(=O)Oc1cccc2c1C(=O)c1c(-c3ccncc3)noc1C2=O [Compound 15] | maintained | lower | 250 ± 14 nM | 3.05 | 84 nM | – | –
– | – | – | – | – | – | 2270 ± 42.4 nM | COc1cccc2c1C(=O)c1c(O)c3c(c(O)c1C2=O)C[C@@](O)(C(=O)CO)C[C@@H]3O[C@H]1C[C@H](N)[C@H](O)[C@H](C)O1 [DOX, doxorubicin] | – | – | – | – | – | significantly increased P-gp expression | significantly increased P-gp expression
